According to patent US20240018501A1, “HIGHER PERFORMANCE PROTEASES FOR SCARLESS PEPTIDE TAG REMOVAL” (priority 2017, published 2024):
Ends that are not written are not given here. * marks the point of attachment. Butanoyl(2-oxo) = CCC(=O)C(=O)*; Pyruvoyl = CC(=O)C(=O)*

B1: His6-CylA-27-412: CylA without secretion signal residues 1-26, N-terminal hexa-histidine tag, SEQ ID NO: 10 (protein)
chain: MGSSHHHHHHSQDPNSLSNNISFFIDNSQTTAIEEIESELSSEKVDYIQEIGLVSFKNLDDSDRKFIGKYFNVSEGKKLPDFKPEEVNSSILNINILNKDFKSFNWPYKKILSHIDPVKEQLGKDITIALIDSGIDRLHPNLQDNNLRLKNYVNDIELDEYGHGTQVAGVIDTIAPRVNLNSYKVMDGTDGNSINMLKAIVDATNDQVDIINVSLGSYKNMEIDDERFTVEAFRKVVNYARKNNILIVASAGNESRDISTGNEKHIPGGLESVITVGATKKSGDIADYSNYGSNVSIYGPAGGYGDNYKITGQIDAREMMMTYYPTSLVSPLGKAADFPDGYTLSFGTSLATPEVSAALAAIMSKNVDNSKDSNEVLNTLFENADSFIDKNSMLKYKEVRIK
modifications: N-terminal His6 tag; … PEPTIDE SEQUENCE FOR CylA with His6-tag, without the secretion signal peptide.
B2: CylA: class II LanP subtilisin-like serine protease of enterococcal cytolysin biosynthesis, SEQ ID NO: 9 (protein)
chain: MKKRGLTYILISYIFLILGTTGYASDLSNNISFFIDNSQTTAIEEIESELSSEKVDYIQEIGLVSFKNLDDSDRKFIGKYFNVSEGKKLPDFKPEEVNSSILNINILNKDFKSFNWPYKKILSHIDPVKEQLGKDITIALIDSGIDRLHPNLQDNNLRLKNYVNDIELDEYGHGTQVAGVIDTIAPRVNLNSYKVMDGTDGNSINMLKAIVDATNDQVDIINVSLGSYKNMEIDDERFTVEAFRKVVNYARKNNILIVASAGNESRDISTGNEKHIPGGLESVITVGATKKSGDIADYSNYGSNVSIYGPAGGYGDNYKITGQIDAREMMMTYYPTSLVSPLGKAADFPDGYTLSFGTSLATPEVSAALAAIMSKNVDNSKDSNEVLNTLFENADSFIDKNSMLKYKEVRIK
modifications: … PEPTIDE SEQUENCE FOR FULL LENGTH CylA
B3: CylA-96-412 (protein)
chain: EVNSSILNINILNKDFKSFNWPYKKILSHIDPVKEQLGKDITIALIDSGIDRLHPNLQDNNLRLKNYVNDIELDEYGHGTQVAGVIDTIAPRVNLNSYKVMDGTDGNSINMLKAIVDATNDQVDIINVSLGSYKNMEIDDERFTVEAFRKVVNYARKNNILIVASAGNESRDISTGNEKHIPGGLESVITVGATKKSGDIADYSNYGSNVSIYGPAGGYGDNYKITGQIDAREMMMTYYPTSLVSPLGKAADFPDGYTLSFGTSLATPEVSAALAAIMSKNVDNSKDSNEVLNTLFENADSFIDKNSMLKYKEVRIK

Assays:
[1] = tested on: His6-ElxO; assay: His6-ElxO activity assay (NADPH absorbance at 340 nm, LC-MS); assay type: biochemical, Staphylococcus epidermidis 15X154; conditions: LC-MS analysis
Experimental: Wild type or mutant His6-ElxO (2 or 10 μM) and purified peptide (0.1 to 5 mM) were incubated with NADPH (2.5 mM) in assay buffer (100 mM HEPES, 500 mM NaCl, pH 7.5) at 25° C. Reaction progress was monitored by UV spectrophotometry to measure initial rates, measuring the disappearance of NADPH absorbance at 340 nm. […] The mobile phase was 0.1% (v/v) formic acid in water (A) and methanol (B). A gradient of 0-70% (v/v) B in A over 30 minutes and a flow rate of 0.5 mL min^−1 were used.
Synthetic lactocin S (50 μM), obtained from Prof. J. Vederas (University of Alberta), was incubated with His6-ElxO (50 μM) and NADPH (10 mM) in assay buffer (100 mM HEPES, 500 mM NaCl, pH 7.5) at room temperature for 12 h. […] A gradient of 3-97% (v/v) B (0.10% (v/v) formic acid in methanol) in A (0.1% (v/v) formic acid in water) over 12 min was used.

[2] = tested on: Pediococcus acidilactici Pac1.0; assay: Agar diffusion bioactivity assay; assay type: cell-based; conditions: for activity against P. acidilactici Pac1.0: agar diffusion
Experimental: (§1) Agar diffusion bioactivity assays were performed using de Man-Rogosa-Sharpe (MRS) agar media. For each assay, aliquots of agar medium inoculated with overnight cultures of indicator strain (1/100 dilution) were poured into sterile plates. Aliquots of 20 μL of sample were placed into wells made on the solidified agar and the plates were incubated at 37° C. overnight. For determination of critical concentration, the diameter of the inhibition zones were determined and fitted to the equation D=a+b×(C), where D is the diameter of the inhibition zone, C is the concentration of bacteriocin, and a and b are constant parameters. For MIC determinations, serial dilutions of peptides were prepared in MRS broth and aliquots of 50 μL were dissolved in 150 μL of a 1 to 50 dilution of an overnight culture of indicator strain in fresh MRS broth on 96-well plates. The cultures were incubated at 37° C. overnight and the wells with no bacterial growth (OD600<0.3) were determined.

[3] = tested on: L. sake L45; assay: Agar diffusion bioactivity assay, lactocin S producer strain; assay type: cell-based, Lactobacillus sake
Experimental: as §1

[4] = tested on: CylA; assay: CylA self-cleavage (SDS-PAGE, MALDI-TOF MS); assay type: biochemical, Enterococcus faecalis
Experimental: E. coli BL21 (DE3) cells were transformed with pRSFDuet-1/CylA-27-412, pRSFDuet-1/CylA-27-412-E95A, pRSFDuet-1/CylA-27-412-S359A or pRSFDuet-1/LicP-25-433 vectors and plated on an LB plate containing 50 mg/L kanamycin. A single colony was picked and grown in 20 mL of LB with kanamycin at 37° C. for 12 h and the resulting culture was inoculated into 2 L of LB. Cells were cultured at 37° C. until the OD at 600 nm reached 0.5, cooled and IPTG was added to a final concentration of 0.1 mM. The cells were cultured at 18° C. for another 10 h before harvesting. The cell pellet was resuspended on ice in LanP start buffer (20 mM HEPES, 1 M NaCl, pH 7.5 at 25° C.) and lysed by homogenization. The lysed sample was centrifuged at 23,700×g for 30 min and the pellet was discarded. The supernatant was passed through 0.45-μm syringe filters and the protein was purified by immobilized metal affinity chromatography (IMAC) loaded with nickel as described in B. Li et al. Methods Enzymol. 2009, 458, 533. […] Protein concentration was quantified by its absorbance at 280 nm. The extinction coefficient for His6-CylA-27-412, His6-CylA-27-412-E95A and His6-CylA-27-412-S359A was calculated as 30,830 M^−1 cm^−1. The extinction coefficient for His6-LicP-25-433 was calculated as 46,300 M^−1 cm^−1. […]

[5] = Storage and freeze-thaw stability of the proteases; assay type: physicochemical
[6] = tested on: modified CylLS; assay: Kinetic analysis of full length CylA and CylA-96-412 against modified CylLS (LC/MS); assay type: biochemical, Enterococcus faecalis
Experimental: Targeted peptides were dissolved in H2O to a final concentration of 3 mg/mL. To a 85 μL solution of peptides, 10 μL of 500 mM HEPES buffer (pH 7.5) was added followed by 5 μL of 0.5 mg/mL AspN protease (for modified CylLL and CylLS peptides), 0.1 mg/mL CylA protease (for modified and unmodified CylLL, CylLS peptides, and modified HalA2-GDVQAE peptide) or 0.1 mg/mL LicP protease (for LicA2). For cleavage tests of the engineered GDVQAE peptides, CylA was added to a final concentration of 0.01 mg/mL, whereas the peptide was added to a concentration of 0.3 mg/mL with 50 mM HEPES buffer (pH 7.5). The protease cleavage reaction mixtures were kept at 25° C. for 1 to 48 h. Osmotic pressure was adjusted with NaCl solution with a final concentration of 150 mM. The digested peptide mixture was directly used for antimicrobial and hemolytic assay. For the kinetic analysis of CylA and its mutant proteins, His6-CylA-27-412 and His6-CylA-27-412-E95A proteins were added to a final concentration of 500 ng/mL and 2.5 μg/mL (22 nM and 110 nM), respectively, with modified CylLS supplied at a concentration of 0.3 mg/mL (36 μM). The reactions were allowed to proceed at room temperature and were stopped by 1% TFA at different time points for LC/MS analysis. Halα and Halβ were obtained by factor Xa cleavage of modified HalA1Xa and HalA2 Xa peptides using the procedure of Y. Shi, et al. J. Am. Chem. Soc. 2011, 133, 2338. CylLL″ and CylLS″ were prepared in the same way using modified CylLL-E-1K and CylLS-E-1K peptides as described in W. Tang and W. A. van der Donk, Nat. Chem. Biol. 2013, 9, 157.
As full length CylA is not available due to its self-cleavage, His6-CylA-27-412-E95A was chosen to serve as a substituent of full length CylA as the self-cleavage was abolished whereas the conserved catalytic C-terminal region of CylA remained unchanged. To obtain the mature protease CylA-96-412, His6-CylA-27-412 was aged at 4° C. for 12 hours to allow the self-cleavage to proceed until CylA-96-412 was the dominant peak monitored by MALDI-TOF MS. The aged protein mixture was directly used as a substituent of CylA-96-412. To test the proteases' activities, CylA-96-412 and His6-CylA-27-412-E95A were supplied with a final concentration of 22 nM and 110 nM, respectively, with modified CylLS served at a concentration of 36 μM. The reactions were stopped at 3 minute, 6 minute, 12 minute and 24 minute by 1% TFA and the formation of mature CylLS″ was monitored by liquid chromatography MS (LC/MS). […] The production of core peptide was analyzed by extracted ion chromatography monitoring the desired product mass 1017 (M+2H^+).

[7] = biological target: modified CylLS
[8] = serial dilution agar diffusion, versus control samples containing native lactocin S

Molecule	reduction by His6-ElxO in the presence of NADPH [1]	also measured
Glx-AAIVK	no significant formation of the reduced peptide	
OBu-AAAVK ({Butanoyl(2-oxo)}-AAAVK)	substrates for the enzyme	
OBu-AAIAK	substrates for the enzyme	
OBu-AGPAIR ({Butanoyl(2-oxo)}-AGPAIR) [resembles the N-terminus of Pep5]	reduced	
Obu-AAIVK	accepted as substrates	
Obu-RAIVK	accepted as substrates	
Pyr-AAI (Pyruvoyl-Ala-Ala-Ile)	reduced	
Pyr-AAIV (Pyruvoyl-AAIV)	reduced	
Pyr-AAVLK	reduced	
Pyr-APVLA (Pyruvoyl-APVLA) [resembles the N-terminus of lactocin S]	reduced	
Pyr-BPVLAAVAVAKKK	reduced	
Pyr-LGPAIK (Pyruvoyl-LGPAIK) [mimics the N-terminal portion of dehydroepicidin 280]	reduced	
dihydrolactocin S		activity against P. acidilactici Pac1.0 [2]: active; critical concentrations (no inhibition zone) [2, 8]: smaller; inhibition zones [2, 8]: slightly larger; activity against L. sake L45 [3]: not against L. sake L45
lactocin S [reference compound]	confirming the formation of dihydrolactocin S	activity against P. acidilactici Pac1.0 [2]: active; activity against L. sake L45 [3]: not against L. sake L45
B1		CylA self-cleavage during expression or purification [4]: cleavage event after residue Glu95
B2		activity after multiple rounds of freeze-thaw [5]: no obvious decrease of activity; stability on storage ([5]; −20° C): stable; turnover rate [6]: 20 min⁻¹
B3		rate of proteolysis, formation of CylLS″ by LC/MS (22 nM enzyme, 36 µM substrate) [7]: CylA-96-412 catalyzed the proteolysis of 20 substrate peptides per minute; rate of proteolysis of modified CylLS ([6]; enzyme 22 nM, modified CylLS 36 μM, room temperature, LC/MS): 20 substrate peptides per minute
